Measurements: ChEMBL document CHEMBL3044767, “GdCl3 promoted synthesis of novel pyrimidine fused indazole derivatives and their anticancer activity” (Med Chem Res, 2012)
Values after ≈ are worked out from the molar mass of the structure shown.

Legend:
U-937 [1] = experiment: Ratio of etoposide IC50 to compound IC50 for Homo sapiens (human) U937 cells after 48 hr by MTT assay; type: functional
U-937 [2] = experiment: Cytotoxicity against Homo sapiens (human) U937 cells after 48 hr by MTT assay; type: functional, cell-based; conditions: U-937, 48 h
THP-1 = experiment: Cytotoxicity against Homo sapiens (human) THP1 cells after 48 hr by MTT assay; type: functional, cell-based; conditions: THP-1, 48 h

For `N#Cc1c(-c2ccccc2)cc(C(F)(F)F)c2c3n(nc12)C(c1ccccc1)C[C@H](c1ccccc1)N3` (some centres not stated), the “Ratio IC50” value (U-937 [1]) was 1.4 and the IC50 (U-937 [2]) was 7.52 µg/mL (≈ 15.2 µM).

With `N#Cc1c(C(F)(F)F)cc(-c2ccccc2)c2c3n(nc12)[C@H]1OCCC[C@H]1[C@H](c1ccccc1)N3` the “Ratio IC50” value (U-937 [1]) was 1.17, the IC50 (THP-1) was 79.9 µg/mL (≈ 168 µM) and the IC50 (U-937 [2]) was 9.02 µg/mL (≈ 19 µM).

With `C=CC1(C)C[C@H](c2ccccc2)Nc2c3c(-c4ccccc4)cc(C(F)(F)F)c(C#N)c3nn21` (some centres not stated) the “Ratio IC50” value (U-937 [1]) was 1.21, the IC50 (THP-1) was 53.3 µg/mL (≈ 116 µM) and the IC50 (U-937 [2]) was 8.7 µg/mL (≈ 19 µM).

For `N#Cc1c(-c2ccccc2)cc(C(F)(F)F)c2c3n(nc12)[C@H]1C=CCC[C@H]1CN3`, the “Ratio IC50” value (U-937 [1]) was 4 and the IC50 (U-937 [2]) was 2.64 µg/mL (≈ 6.69 µM).

For `N#Cc1c(C(F)(F)F)cc(-c2ccccc2)c2c3n(nc12)[C@H]1OCCC[C@H]1CN3`, the IC50 (THP-1) was 33.5 µg/mL (≈ 84.1 µM) and the IC50 (U-937 [2]) was 11.2 µg/mL (≈ 28.2 µM).

With `N#Cc1c(C(F)(F)F)cc(-c2ccccc2)c2c3n(nc12)C(c1ccccc1)CCN3` (configuration not stated) the “Ratio IC50” value (U-937 [1]) was 1.33 and the IC50 (U-937 [2]) was 7.92 µg/mL (≈ 18.9 µM).

With `N#Cc1c(-c2ccccc2)cc(C(F)(F)F)c2c3n(nc12)[C@H]1OCCC[C@H]1CN3` the “Ratio IC50” value (U-937 [1]) was 1.63, the IC50 (THP-1) was 65.4 µg/mL (≈ 164 µM) and the IC50 (U-937 [2]) was 6.49 µg/mL (≈ 16.3 µM).

In the case of `C=CC1(C)CCNc2c3c(-c4ccccc4)cc(C(F)(F)F)c(C#N)c3nn21` (configuration not stated), the “Ratio IC50” value (U-937 [1]) is reported as 1.09 and the IC50 (U-937 [2]) is reported as 9.73 µg/mL (≈ 25.4 µM).

With `N#Cc1c(-c2ccccc2)cc(C(F)(F)F)c2c3n(nc12)C(c1ccccc1)CCN3` (configuration not stated) the “Ratio IC50” value (U-937 [1]) was 1.13 and the IC50 (U-937 [2]) was 9.36 µg/mL (≈ 22.4 µM).

For `C=CC1(C)CCNc2c3c(C(F)(F)F)cc(-c4ccccc4)c(C#N)c3nn21` (configuration not stated), the IC50 (U-937 [2]) was 53.5 µg/mL (≈ 140 µM).
